experiment: Human HepG2 cell viability assay in 384 well format; format: toxicity, cell-based; set-up: dose 125 nL, time 70.5 hour; concentration not given beside the values; conditions: HepG2 cells, read-out: Inhibition

Structure (SMILES)	cytotoxicity at 70.5 h [%]
CC(C)N1C[C@@H](F)[C@@H](OCc2nc3ncccc3[nH]2)C1	-0.523
CN(C)C(=O)Cc1ccc(NC(=O)NC2CCCCC2)cc1	-10.4
c1cc(CN2CC[C@@H]3CN(c4cncnc4)C[C@@H]3C2)ccn1	-6.08
CCc1noc(CC)c1CC(=O)N1CCC(C(=O)NC(C)C)CC1	-3.58
CCN(C(=O)NCCc1ccccc1Cl)C(C)CS(C)(=O)=O (stereo unspecified)	20.5
CCn1ccnc1CN1CCN(c2ncnc3ccsc23)CC1	-3.44
COCC(=O)N1CC[C@H]2N(C)CC[C@@]2(C(=O)Nc2ccccc2)CC1	-20
CN(Cc1cccs1)C(=O)CN(C)C1CCc2ccccc21 (stereo unspecified)	-7.67
CCc1nc(N)nc(N2CCCC3(CN(C)C(=O)O3)C2)c1C (stereo unspecified)	-10.4
CCC(=O)Nc1ccc(OCC(=O)N(C)C(C)c2ccon2)cc1 (stereo unspecified)	-18.6
Cc1ccsc1-c1nc(CN(C)Cc2noc(C(C)C)n2)c(C)o1	-10.3
Cc1cc(Nc2nc(C)cc(C)n2)cc(C2CCCN2)n1 (stereo unspecified)	-7.57
CSc1ncccc1C(=O)N1C[C@H]2CC[C@@H]1CN(CC(=O)N(C)C)C2	45.6
COCCO[C@H]1CCN(C(=O)c2cc(C)on2)[C@H]1Cc1ccccc1	0.559
CC1COCCN1C(=O)c1cnccn1 (stereo unspecified)	7.55
Cc1ccc(CNC(=O)c2ccc(CNS(C)(=O)=O)o2)cc1F	17.8
CCOc1ccc(CNC(C)c2ccc3[nH]c(=O)[nH]c3c2)cc1 (stereo unspecified)	1.32
CN(C)CC1CN(Cc2coc(-c3ccccc3)n2)CCO1 (stereo unspecified)	-5.29
COC[C@]1(O)CCN(C2CCN(c3ccc(Cl)cc3)CC2)CC1(C)C	22.5
CCOCCn1nc(C)cc1C(=O)N1CC[C@@](O)(COC)C(C)(C)C1	25.9
Cc1ncsc1CCN(C)C(=O)c1ccc(CN2CCCCC2)cc1	0.585
O=S(=O)(NCCNc1cc(-n2cccn2)ncn1)c1cccs1	12.1
CCOCCCC(=O)Nc1cccnc1-n1ccnc1C	-6.87

Structure (SMILES)	cytotoxicity at 70.5 h [%]
CC(C)c1nc(N2CCC(N3CCSCC3)CC2)c2cnn(C)c2n1	-2.43
CCc1cnc(C)nc1NCCSc1nnc(C)n1CC	0.501
Cn1cccc1C(=O)N1CCC2(CCCN2Cc2ccccc2)CC1	-9.97
CC(C)Oc1cc(N2CCN(Cc3ccsc3)C(CCO)C2)nc(N)n1 (stereo unspecified)	-17
CCc1ncc(C(=O)NCCn2c(C)cc(C)nc2=O)cn1	-1.56
O=C(NCCC(=O)N1CCCc2ccccc21)c1c(F)cccc1F	-12.4
CC(C)Nc1nc(N2CCCC2)nc2c1CCN(S(C)(=O)=O)CC2	-10.7
CC(=O)N1CCC2(CC1)CNc1c(F)cccc12	-6.53
COCC(=O)NCc1cc(=O)n2c(n1)CN(Cc1ccncc1)CCC2	-0.67
Cc1cc(CN2CCN(C(=O)CCc3cccc(F)c3F)CC2)on1	-6.52
Cc1cccc(CN(Cc2ccccn2)S(=O)(=O)N(C)C)c1	18.6
Cc1cnc(N2CCC3(CCC(C(=O)NC(C)C)C3)CC2)nc1 (stereo unspecified)	-7.58
Fc1cccc(CN2CCC(c3noc(-c4ccccn4)n3)CC2)c1F	-0.639
O=C(O)c1ccn(-c2ccccc2NS(=O)(=O)c2cccc(F)c2)n1	7.58
CC(=O)N1C[C@H]2CNC[C@@]2(C(=O)NCCCOc2cccnc2)C1	20
Cc1n[nH]c(C)c1CCCNCc1cn(CCC(N)=O)c2ccccc12	-3.31
Cn1ccnc1-c1cccc(NC(=O)NCC(=O)NC(C)(C)C)c1	4.86
CC(C)N1CCC(Cc2cncc(-c3cccc(C(=O)O)c3)n2)C1 (stereo unspecified)	-5.63
Cc1n[nH]c(C)c1S(=O)(=O)N(C)Cc1nn(C)c(Cl)c1Cl	22.3
CC(C)N1[C@H](CN(C)C)C[C@@H]2CN(c3ncc(F)cn3)CC[C@@H]21	6.71
CCCc1n[nH]c(C2CN(C(=O)Cn3ccccc3=O)CCO2)n1 (stereo unspecified)	-4.93
O=C(NCCCOCc1ccco1)c1cccnc1N1CCOCC1	6.19
CS(=O)(=O)N1CCOC2(CCCC2)C1	-5.25

Structure (SMILES)	cytotoxicity at 70.5 h [%]
CC(=O)N1CCOC(c2ccnc(N(C)C)n2)C1 (stereo unspecified)	1.91
Cc1nn(C)c2cnn(Cc3ccc(C(=O)N4CCCCC4)o3)c12	-5.62
CN(Cc1ccccc1)CC(C)(C)NC(=O)c1cnns1	-0.0616
c1cnnc(N2CCCC(NCc3ccc(-n4cccn4)cc3)C2)c1 (stereo unspecified)	-4.64
Cc1ccc(CN2CCCC(c3cncc(C)n3)C2)cn1 (stereo unspecified)	-2.94
Cc1noc(C)c1CC(=O)OCc1nc(N)c2ccccc2n1	-3
Cc1cnc(N2CC[C@@H]3OC(COCC(=O)N(C)C)CC[C@@H]32)nc1 (stereo partly specified)	-117
COC(=O)CN(C(=O)c1ccoc1)c1cccc(F)c1	-8.55
Cc1csc(CNC(=O)N(C)Cc2ccc3c(c2)OCO3)n1	-9.49
O=C(NCc1ccc(Br)cc1)C1(O)CCSCC1	-1.14
CC(C)N1CC2(CCC1=O)CCN(C(=O)c1cccc(F)c1F)CC2	-5.47
CC(C)c1nccn1-c1cncc(C2CCCN(C3CCCC3)C2)n1 (stereo unspecified)	19.3
COc1ccc(C(C)NCc2ccnn2C)cc1Cn1cccn1 (stereo unspecified)	-6.58
CN(C)CCN(C)S(=O)(=O)Cc1ccc(Br)cc1	11.7
Cn1cc(C2CC(=O)NC23CCN(Cc2ccncc2)CC3)cn1 (stereo unspecified)	13.9
CS(=O)(=O)N1C[C@@H]2CC[C@H](C1)N(C(=O)CCn1cnc3ccccc31)C2	18.3
Cc1[nH]nc(CCC(=O)NCC2CCCN(C3CCCC3)C2)c1C (stereo unspecified)	-5.73
O=C(Cc1cccc(F)c1F)NS(=O)(=O)c1cncc(Cl)c1	-2.5
COCC(=O)N1CCC(C(=O)Nc2ccc(C(C)=O)cc2)CC1	-7.91
C[C@H]1C[C@H]2CN(C(=O)C3=CCCCC3)CC[C@H]2O1	-2.58
Cc1nn(CC(C)C)c(N(C)C)c1CNCCS(C)(=O)=O	5.47
CCc1nc2c(c(NC3CCC3)n1)CCN(C(=O)CO)CC2	0.47
Cc1ccc(O[C@@H]2C[C@H]3CN(C(=O)c4cccnc4)CCN3C2)cc1	9.15

Structure (SMILES)	cytotoxicity at 70.5 h [%]
O=c1cc(N2CCCCC2)cnn1CCCn1cccn1	4.12
CCCc1nc2c(c(C)c(C)n2CCN(C)C)c(N)c1CC	3.64
O=C(c1cccc(Cl)c1)N1CCCC(Nc2ccc(F)cc2)C1 (stereo unspecified)	2.07
Cc1csc(CN(C)c2cc(C)nc3c(C)c(C)nn23)n1	-7.34
CCCN1C[C@H]2CC[C@@H]1CN(Cc1ccc(-n3cccn3)cc1)C2	23.7
CCCN(CCC)C(=O)CN(C)Cc1cnc(C)s1	3.46
CNC(=O)CCNC(=O)c1ccccc1N1CCOCC1	-4.86
OC1CCN(c2ccnc(NCCc3ccccc3Cl)n2)C1 (stereo unspecified)	-3.46
CCN(CC)Cc1cnc2n1CCN(C1CCOC1)CC2 (stereo unspecified)	-1.04
Cc1nc2ccccc2nc1CN1CCCC1Cn1cccn1 (stereo unspecified)	20.6
COc1ccccc1OCCNS(=O)(=O)N1CCOCC1	-11.3
Cc1ccc(NC(=O)CCC2CC2)cc1N1CCOC1=O	-10.8
CC(C)[C@H]1CN(Cc2ccncc2)C[C@@H]1NC(=O)C1(C#N)CCOCC1	-1.7
COc1cc(C)cc(C(C(=O)O)N(C)Cc2ccon2)c1OC (stereo unspecified)	-0.471
CN1C(=O)C2(CCN(c3ncccc3C(=O)O)CC2)c2ccccc21	-8.18
COCCOCC(=O)Nc1ccc(Br)cc1F	-11
Cc1cccc(CN(Cc2cccnc2)C2CC(C)(C)NC(C)(C)C2)n1	-1.41
Cc1n[nH]c(C)c1NC(=O)CCc1cccc(C2CCCN(C)C2)n1 (stereo unspecified)	-3.99
CCNC(=O)[C@@H]1C[C@H](NC(=O)c2ccc(C)s2)CN1Cc1ccc(C)o1	16.1
Cc1ccc(C(=O)N2C[C@H](OCC3CCOCC3)[C@H]3OCCC[C@H]32)o1	0.644
COc1cc2c(cc1C(=O)N1CC(c3ccncc3)C1)CCC2	-5.23
CCc1c(C)sc2nc3n(CC(N)=O)nc(SC)n3c(=O)c12	5.38
COc1ccc(OC)c(Sc2ncccc2C(=O)N(C)CCC#N)c1	5.96

Structure (SMILES)	cytotoxicity at 70.5 h [%]
COc1cccc(NC(=O)N2CC[C@@H]3CN(C)S(=O)(=O)[C@@H]3CC2)c1	20.9
Cn1cc(N2CC3(COCCN(Cc4ccsc4)C3)OCC2=O)cn1 (stereo unspecified)	22.6
O=C(NCc1cccs1)[C@H]1CC[C@@H]2[C@@H](CCN2Cc2ccoc2)O1	2.32
CN(C)C[C@H]1C[C@@H](CO)CN(C(=O)CCc2nc(Cl)n[nH]2)C1	4.5
Cc1nn(C)c(N(C)C)c1CNCc1ccc(OCCN(C)C)cc1	22.3
Cc1ccc(OC2(C(=O)NC(C)c3csc(C)n3)CCNCC2)cc1 (stereo unspecified)	22.5
COCCN1CC[C@@H]2O[C@H](COCc3csc(C)n3)CC[C@@H]21	-15.2
Cc1ccc(-c2cn[nH]c2C2CCCN(c3ncccn3)C2)cc1 (stereo unspecified)	22.7
CCC(C)C(=O)N(C)Cc1cc(F)ccc1N1CCC(OC)CC1 (stereo unspecified)	-10.5
O=C(c1ccoc1)N1CCCC2(CCC(=O)N2Cc2cccnc2)C1 (stereo unspecified)	2.4
CNS(=O)(=O)c1csc(C(=O)N(C)Cc2sccc2C)c1	-6.58
CC(C)c1cc(C(=O)N2Cc3ccccc3CC2C(=O)O)nn1C (stereo unspecified)	-2.03
CCO[C@H]1CC[C@H]2[C@H]1OCCN2C(=O)c1nn(C)c2ccccc12	0.53
CCOc1c(F)cccc1C(=O)N(CC)C(C)c1ccncc1 (stereo unspecified)	-4.06
COCCN1CCC2(CC1)CN(C(C)=O)c1ccc(C)cc12	4.91
CCn1ncc(CNc2[nH]cnc3nncc2-3)c1C	-13.8
CCN1CCC(NC(=O)CN2CCc3c(ncn3C)C2)CC1	2.11
CCOc1ccccc1C(=O)N1CCCC1c1ncc2c(n1)CCNC2 (stereo unspecified)	22.9
Nc1nc2c(c(NCC(c3cccnc3)N3CCOCC3)n1)CCNC2 (stereo unspecified)	-10.5

Reference: ChEMBL document CHEMBL3507680, “University of Dundee, Gates Library screen for HepG2 cell viability”
